Where two headings read alike, the source gives them in different places.
Legend:
HeLa cells = details: microscopy
influenza B virus = details: read-out: EC50 influenza B; previous series; ref [21]; cited from earlier work
influenza B/Ned/537/05 [1] = test: Influenza B antiviral assay in MDCK cells; type: cell-based; details: Influenza B virus, read-out: EC50 Influenza B, microscopic method
[2] = test system: Respiratory syncytial virus (RSV; strain Long); test: microbe, parasite or virus in culture; type: cell-based; details: human respiratory syncytial virus, HeLa, read-out: EC50 RSV
influenza B/Ned/537/05 [3] = test: Influenza B antiviral assay in MDCK cells; type: cell-based; details: Influenza B virus, read-out: mean EC50 anti-influenza B activity

Compound | Cytotoxicity MCC (HeLa cells) [µM] | further results
COCCN1C(N)=NC(N)=NC12CCN(S(=O)(=O)c1ccccc1)CC2 [Compound 21, 2,4-Diamino-9-(phenylsulfonyl)-1-(2-methoxyethyl)-1,3,5,9-tetraazaspiro[5.5]undeca-2,4-diene] | >100 | –
CC(=O)N[C@H]1[C@H]([C@H](O)[C@H](O)CO)OC(C(=O)O)=C[C@@H]1NC(=N)N [Zanamivir] | – | EC50 (influenza B virus): 60 nM
NC1=NC2(CCN(C(=O)c3ccc4ccccc4c3)CC2)N(c2cccc(Cl)c2)C(N)=N1 [Compound 5, 1-(3-Chlorophenyl)-2,4-diamino-9-[(naphthalen-2-yl)carbonyl]-1,3,5,9-tetraazaspiro-[5.5]undeca-2,4-diene] | ≥100 | –
CCCCC(=O)N1CCC2(CC1)N=C(N)N=C(N)N2c1cccc(OC)c1 [Compound 9, 2,4-Diamino-1-(3-methoxyphenyl)-9-(1-oxopent-1-yl)-1,3,5,9-tetraazaspiro[5.5]undeca-2,4-diene] | >100 | –
NC1=NC2(CCN(C(=O)Nc3ccc(F)cc3)CC2)N(c2cccc(Cl)c2)C(N)=N1 [Compound 6, 1-(3-Chlorophenyl)-2,4-diamino-9-[N-(4-fluorophenyl)carbamoyl]-1,3,5,9-tetraazaspiro-[5.5]undeca −2,4-diene] | ≥100 | EC50 (influenza B/Ned/537/05 [1]): 350 nM; CC50 fold higher than corresponding MCC (MDCK cells): 319 fold
CC(C)(C)OC(=O)N1CCC2(CC1)N=C(N)N=C(N)N2c1cccc(Cl)c1 [Compound 2, Tert-butyl 1-(3-Chlorophenyl)-2,4-diamino-1,3,5,9-tetraazaspiro[5.5]undeca-2,4-diene-9-carboxylate] | >100 | –
CCS(=O)(=O)N1CCC2(CC1)N=C(N)N=C(N)N2CCOC [Compound 20, 2,4-Diamino-9-(ethylsulfonyl)-1-(2-methoxyethyl)-1,3,5,9-tetraazaspiro[5.5]undeca-2,4-diene] | >100 | –
NC1=NC2(CCNCC2)N(c2cccc(Cl)c2)C(N)=N1 [Compound 1, 1-(3-Chlorophenyl)-2,4-diamino-1,3,5,9-tetraazaspiro[5.5]undeca-2,4-diene] | >100 | –
COCCN1C(N)=NC(N)=NC12CCN(C(=O)NC1CCC(C)CC1)CC2 (centres unmarked) [Compound 18, 2,4-Diamino-9-[(4-methylcyclohexyl)carbamoyl]-1-(2-methoxyethyl)-1,3,5,9-tetraazaspiro-[5.5]undeca-2,4-diene] | >100 | –
NC(=O)c1ncn([C@@H]2O[C@H](CO)[C@@H](O)[C@H]2O)n1 [Ribavirin] | – | EC50 [2]: 5800 nM
Cc1ccc(C(=O)N2CCC3(CC2)N=C(N)N=C(N)N3c2cccc(Cl)c2)cc1 [Compound 4, 1-(3-Chlorophenyl)-2,4-diamino-9-(p-tolylcarbonyl)-1,3,5,9-tetraazaspiro[5.5]undeca-2,4-diene] | ≥100 | EC50 (influenza B/Ned/537/05 [3]): ~200 nM; CC50 fold higher than corresponding MCC (MDCK cells): 22 fold
COc1cccc(N2C(N)=NC(N)=NC23CCNCC3)c1 [Compound 7, 2,4-Diamino-1-(3-methoxyphenyl)-1,3,5,9-tetraazaspiro[5.5]undeca-2,4-diene] | >100 | –
COc1cccc(N2C(N)=NC(N)=NC23CCN(C(=O)c2ccc(C(F)(F)F)cc2C)CC3)c1 [Compound 10, 2,4-Diamino-1-(3-methoxyphenyl)-9-[(2-methyl-4-(trifluoromethyl)phenyl)carbonyl]-1,3,5,9-tetraazaspiro[5.5]undeca-2,4-diene] | >100 | –
COc1cccc(N2C(N)=NC(N)=NC23CCN(C(=O)OC(C)(C)C)CC3)c1 [Compound 8, Tert-butyl 2,4-diamino-1-(3-methoxyphenyl)-1,3,5,9-tetraazaspiro[5.5]undeca-2,4-diene-9-carboxylate] | >100 | –
CC(C)(C)OC(=O)N1CCC2(CC1)N=C(N)N=C(N)N2Cc1cccc(Cl)c1 [Compound 11, Tert-butyl 1-(3-Chlorobenzyl)-2,4-diamino-1,3,5,9-tetraazaspiro[5.5]undeca-2,4-diene-9-carboxylate] | >100 | –
NC1=NC2(CCN(C(=O)C3CCC3)CC2)N(c2cccc(Cl)c2)C(N)=N1 [Compound 3, 9-Cyclobutylcarbonyl-1-(3-chlorophenyl)-2,4-diamino-1,3,5,9-tetraazaspiro[5.5]undeca-2,4-diene] | >100 | –

From article PMC7115377 (European Journal of Medicinal Chemistry, 2018)
